Laboratory results published in article PMC9182086, “Identification of New Non-BBB Permeable Tryptophan Hydroxylase Inhibitors for Treating Obesity and Fatty Liver Disease” (Molecules, 2022).
pIC50: −log10 of the molar value.

Key:
TPH1 = molecular target: T1, TPH1 (Homo sapiens, UniProt P17752); assay: TPH1 enzyme inhibition, in vitro screening (BPS Bioscience kit, fluorescence); format: biochemical; settings: for inhibition at 1 µM / TPH1 Inhibition (% Inhibition at 1 µM): 1 µM compound; for inhibition at 10 µM: 10 µM compound (stated in the cell)
T1 construct: purchased BPS Bioscience
T1 sequence (P17752 1-444): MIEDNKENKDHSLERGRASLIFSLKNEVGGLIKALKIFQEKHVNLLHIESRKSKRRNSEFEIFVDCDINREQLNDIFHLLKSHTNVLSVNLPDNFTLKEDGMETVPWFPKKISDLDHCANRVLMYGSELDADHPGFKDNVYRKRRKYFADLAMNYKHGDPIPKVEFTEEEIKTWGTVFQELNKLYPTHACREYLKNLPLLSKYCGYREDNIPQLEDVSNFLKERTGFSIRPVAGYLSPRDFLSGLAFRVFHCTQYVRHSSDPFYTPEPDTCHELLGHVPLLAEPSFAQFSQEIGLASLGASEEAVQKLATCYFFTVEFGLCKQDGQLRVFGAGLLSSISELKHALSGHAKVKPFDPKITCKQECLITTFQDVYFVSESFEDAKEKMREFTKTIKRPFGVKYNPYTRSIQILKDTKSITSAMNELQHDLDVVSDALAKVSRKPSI
Procedure: Consequently, the core structure of thienopyrimidine tyrosine (derivative 6) was selected as the starting point for the synthesis, evaluating the structure-activity relationships (SAR), and optimization of TPH1 inhibitors. […]
In vitro screening was performed as described previously [PMID: 33417443]. Briefly, TPH1 enzyme activity was measured with a commercially available kit (BPS Bioscience). Compounds were dissolved in DMSO (Sigma). Then, 10 μL of the compound was dispensed into a 96-well microplate, and 40 μL of the TPH1 enzyme solution (320 ng enzyme/reaction) was added. Then, 50 μL of the TPH1 reaction solution was added, and the microplate was sealed with aluminum foil. The microplate was immediately cooled to 4 °C, gently shaken, and incubated for 4 h. After a defined time, 10 μL of the TPH1 quench solution was added. Then, the fluorescence was measured with a Flexstation3 microplate reader at 300 nm for excitation and 360 nm for emission. All experiments were performed in triplicate.

HFD-fed C57BL/6J mice = assay: In vivo efficacy test in high-fat diet fed mice; parameters: species or system mouse; settings: vs vehicle
Procedure: All animal study protocols were approved by the Institutional Animal Care and Use Committee at the Korea Advanced Institute of Science and Technology. Male C57BL/6J mice were purchased from SLC (Shizuoka, Japan) and acclimatized for a week. Mice were housed in a humidity and temperature-controlled environment under a 12 h light-dark cycle with ad libitum access to water and food. After acclimatization, male mice were fed a high-fat diet (HFD, 60% fat calories, Research diet; New Brunswick, NJ) and received daily treatment with TPH1 inhibitors. […] Compound 18i was dissolved in 5% dimethyl sulfoxide (DMSO) (Sigma, St. Louis, MO, USA) and 25% β-cyclodextrin (Sigma, St. Louis, MO, USA). Vehicle or compound 18i (100 mg kg^−1) was injected intraperitoneally in mice for 10 days after two weeks of HFD feeding. Both compounds 19 and 21 were prepared in 10% DMSO and 10% Kolliphor EL (Sigma, St. Louis, MO, USA). Vehicle and 100 mg kg^−1 of compound 19 or compound 21 were administered daily by intraperitoneal injection or oral feeding, respectively, concomitant to the initiation of HFD feeding. For analyzing blood glucose concentration, glucose in blood collected from the tail vein was measured after fasting mice for 16 h using a Gluco Dr. Top glucometer (Allemedicus, Anyang, Korea). Body weight was measured daily and mice were sacrificed for harvesting adipose tissue and liver.
Tissue samples were fixed in 10% formalin, embedded in paraffin, and cut into 5 μm thick sections, followed by deparaffinization and rehydration for H&E staining and UCP1 immunohistochemistry. After heat-induced antigen retrieval with a citrate buffer (pH 6.0) for 10 min at 95°C, tissue sections were incubated with BLOXALL Blocking solution (Vector Laboratories, Burlingame, CA, USA) to block endogenous peroxidase, followed by incubation with 2% normal goat serum in phosphate-buffered saline (PBS) for 30 min at room temperature to block nonspecific binding. Sections were incubated overnight with the anti-UCP1 primary antibody diluted 1:200 in 2% normal goat serum in PBS (Abcam, Cambridge, UK) at 4 °C, followed by 30 min incubation with biotinylated anti-rabbit IgG secondary antibody diluted 1:400 in PBS for 30 min at room temperature. After incubation with Vectastain […] reagent (Vector Laboratories) for 30 min, peroxidase activity was visualized with 3,3′-diaminobenzidine substrates (Vector Laboratories). For measuring average adipocyte size, we analyzed three random fields of H&E stained micrographs per adipose tissue sample from two representative mice of each group using AdipoCount software.
Fresh liver tissues were flash frozen in O.C.T. compound (Sakura Finetek, Torrance, CA, USA) and 10 μm cryostat sections were collected on glass slides. Sections were allowed to air-dry for 1 h, rinsed with PBS for 5 min, and washed with distilled water for 5 min. After washing, sections were placed in 30% isopropanol for 5 min, 60% isopropanol for 5 min twice, and then stained in Oil Red O solution (0.5% Oil red O (Sigma, St. Louis, MO, USA) dissolved in 60% isopropanol) for 15 min. The stained sections were rinsed twice with distilled water, mounted, coverslipped, and documented using bright field microscopy.

[1] = system: high-fat diet (HFD) fed mice; parameters: method as in PMID 25864946, PMID 25485911; settings: cited from earlier work
PAMPA-BBB permeability = format: in vitro ADME; settings: high permeation predicted > 4.0, low < 2.0, read-out: BBB Permeability Pe
From the text: Based on the in vitro data, compound 18i was selected for […] the in vitro BBB permeability. Several in vitro methods and computational models have been used in drug discovery to predict the potential of a drug to penetrate the BBB [15, 16, 17, 18, 19, 20, 21]. The parallel artificial membrane permeation assay (PAMPA) was used to evaluate the BBB permeability of the selected compounds. The PAMPA-BBB assay is advantageous because it predicts passive penetration at the blood-brain barrier with high success, high throughput, low cost, and high reproducibility.
PAMPA was conducted with a […] PAMPA sandwich (pION, Inc., Billerica, MA, USA) consisting of a 96-well filter plate (0.45 μm PVDF membrane) and a 96-well polystyrene donor plate. Test compounds were prepared in 10 mM stock solution with DMSO and diluted to a working solution of 50 μM concentration using a phosphate buffered saline (PBS) buffer. To form lipid membranes in the acceptor plate, 5 μL GIT-0 lipid (pION, Inc., Billerica, MA, USA) was dropped and semi-dried on the bottom side of the 0.45 μm PVDF membrane. The donor plate was prepared by the addition of 200 μL of working solution. […] To acquire the peak area of range from 230 to 500 nm, absorbance scans of PBS, acceptor, donor, and working solution were carried out with an Epoch ELISA reader (BioTek Instruments Inc., Winooski, VT, USA). […]

N[C@@H](Cc1ccc(Oc2ncnc3c(Br)csc23)cc1)C(=O)O [Compound 6] showed an inhibition at 100 µM (TPH1; 100 µM compound) of over 60%.
Work on N[C@@H](Cc1ccc(Oc2ncnc3c(-c4ccc(O)cc4)csc23)cc1)C(=O)O [Compound 9a] yielded an inhibition at 100 µM (TPH1; 100 µM compound) of 45%.
N[C@@H](Cc1ccc(Oc2ncnc3c(-c4cccc(O)c4)csc23)cc1)C(=O)O [Compound 9b] gave an inhibition at 100 µM (TPH1; 100 µM compound) of 82%.
N[C@@H](Cc1ccc(Oc2ncnc3c(-c4ccc(OCc5ccccc5)cc4)csc23)cc1)C(=O)O [Compound 11a] gave an inhibition at 100 µM (TPH1; 100 µM compound) of 58%.
For N[C@@H](Cc1ccc(Oc2ncnc3c(-c4cccc(OCc5ccccc5)c4)csc23)cc1)C(=O)O [Compound 11b], the inhibition at 100 µM (TPH1; 100 µM compound) was 94% and the “TPH1 Inhibition (% Inhibition at 100 µM)” value (TPH1; 100 µM compound, 100 µM) was 92%.
For Nc1ncnc2c(-c3ccc(C[C@H](N)C(=O)O)cc3)csc12 [Compound 15a], the “TPH1 inhibitory activity (in words)” value (TPH1) was “weak activity” and the inhibition at 100 µM (TPH1; 100 µM compound) was 49%.
In the case of N[C@@H](Cc1ccc(-c2csc3c(O)ncnc23)cc1)C(=O)O [Compound 15b], the “TPH1 inhibitory activity (in words)” value (TPH1) was “weak activity” and the inhibition at 100 µM (TPH1; 100 µM compound) was 33%.
Compound N[C@@H](Cc1ccc(-c2csc3c(NCc4ccc(-c5ccccc5)cc4)ncnc23)cc1)C(=O)O [Compound 18a] has an inhibition at 1 µM (TPH1) of 25% and an inhibition at 100 µM (TPH1; 100 µM compound) of 90%.
C[C@@H](Nc1ncnc2c(-c3ccc(C[C@H](N)C(=O)O)cc3)csc12)c1ccc2ccccc2c1 [Compound 18b] showed an inhibition at 1 µM (TPH1) of 10%.
In the case of Cl.N[C@@H](Cc1ccc(-c2csc3c(OC(c4ccccc4)C(F)(F)F)ncnc23)cc1)C(=O)O (some centres unmarked) [Compound 18c], the “TPH1 inhibitory activity (in words)” value (TPH1) was “completely lost their activity” and the inhibition at 10 µM (TPH1) was 2.5%.
For N[C@@H](Cc1ccc(-c2csc3c(OC(c4ccc(-c5ccccc5)cc4)C(F)(F)F)ncnc23)cc1)C(=O)O (some centres unmarked) [Compound 18d], the “TPH1 inhibitory activity (in words)” value (TPH1) was “completely lost their activity” and the inhibition at 10 µM (TPH1) was 1.2%.
Work on N[C@@H](Cc1ccc(-c2csc3c(OC(c4ccccc4-c4ccccc4)C(F)(F)F)ncnc23)cc1)C(=O)O (some centres unmarked) [Compound 18e] yielded an inhibition at 1 µM (TPH1) of 76%.
For N[C@@H](Cc1ccc(-c2csc3c(OC(c4ccc(Cl)cc4-c4ccccc4)C(F)(F)F)ncnc23)cc1)C(=O)O (some centres unmarked) [Compound 18f], the inhibition at 1 µM (TPH1) was 41%.
For N[C@@H](Cc1ccc(-c2csc3c(O[C@H](c4ccc(Cl)cc4-c4ccoc4)C(F)(F)F)ncnc23)cc1)C(=O)O [Compound 18g], the inhibition at 1 µM (TPH1) was 12%.
N[C@@H](Cc1ccc(-c2csc3c(O[C@H](c4ccc(Cl)cc4C4=CCCOC4)C(F)(F)F)ncnc23)cc1)C(=O)O [Compound 18h] showed a pIC50 (TPH1) of 6.58 and an inhibition at 1 µM (TPH1) of 78%.
In the case of CCOC(=O)[C@@H](N)Cc1ccc(-c2csc3c(O[C@H](c4ccc(Cl)cc4-n4ccc(C)n4)C(F)(F)F)ncnc23)cc1.Cl [Compound 19, ethyl (S)-2-amino-3-(4-(4-((R)-1-(4-chloro-2-(3-methyl-1H-pyrazol-1-yl)phenyl)-2,2,2-trifluoroethoxy)thieno[3,2-d]pyrimidin-7-yl)phenyl)propanoate hydrochloride], the Body weight gain (HFD-fed C57BL/6J mice; 100 mg/kg ip daily for 11 days from start of HFD) was “attenuated body weight gain”, the “Adipocyte size in eWAT and iWAT (histology)” value (HFD-fed C57BL/6J mice; 100 mg/kg ip daily) was “decreased adipocyte size” and the “UCP1 content in iWAT (immunohistochemistry)” value (HFD-fed C57BL/6J mice; 100 mg/kg ip daily) was “higher content of mitochondrial uncoupling protein 1 (UCP1)”. For the same compound, the pIC50 (TPH1) was 6.00 and the “TPH1 Inhibition (% Inhibition at 1 µM)” value (TPH1) was 60%.
In the case of CCOC(=O)[C@@H](N)Cc1ccc(-c2csc3c(O[C@H](c4ccc(Cl)cc4-n4ccc(C)n4)C(F)(F)F)ncnc23)cc1 [Compound 20, ethyl (S)-2-amino-3-(4-(4-((R)-1-(4-chloro-2-(3-methyl-1H-pyrazol-1-yl)phenyl)-2,2,2-trifluoroethoxy)thieno[3,2-d]pyrimidin-7-yl)phenyl)propanoate], the “TPH1 Inhibition (% Inhibition at 1 µM)” value (TPH1; 1 µM) was 79%.
In the case of CCOC(=O)[C@@H](N)Cc1ccc(-c2csc3c(O[C@H](c4ccc(Cl)cc4-n4ccc(C)n4)C(F)(F)F)ncnc23)cc1 [Compound 21, ethyl (S)-2-amino-3-(4-(4-((R)-1-(4-chloro-2-(3-methyl-1H-pyrazol-1-yl)phenyl)-2,2,2-trifluoroethoxy)thieno[3,2-d]pyrimidin-7-yl)phenyl)propanoate hippurate], the “Body and liver weights” value (HFD-fed C57BL/6J mice; 100 mg/kg oral daily, 6 weeks) was “without significant changes in body and liver weights”, the “Lipid accumulation in liver tissue (H&E, oil red O)” value (HFD-fed C57BL/6J mice; 100 mg/kg oral daily, 6 weeks) was “dramatically decreased lipid accumulation in liver tissue” and the “TPH1 Inhibition (% Inhibition at 1 µM)” value (TPH1; 1 µM) was 92%.
In the case of Cc1ccn(-c2cc(Cl)ccc2[C@@H](Oc2nc(N)nc3c(-c4ccc(C[C@H](N)C(=O)O)cc4)csc23)C(F)(F)F)n1 [Compound 30], the pIC50 (TPH1) was 6.68 and the inhibition at 1 µM (TPH1) was 91%.
In the case of Nc1nc(OC(c2ccc(-c3cccc(F)c3)cc2)C(F)(F)F)cc(-c2ccc(C[C@H](N)C(=O)O)cc2)n1 (stereo partly drawn) [LP533401, 4-[2-amino-6-[2,2,2-trifluoro-1-(3’-fluoro[1,1’-biphenyl]-4-yl)ethoxy]-4-pyrimidinyl]-L-phenylalanine, reference compound], the “Protection against diet-induced obesity (body weight gain, lipogenesis in adipose tissue)” value [1] is listed as “protect against diet-induced obesity in vivo”.
For NC(Cc1ccc(Cl)cc1)C(=O)O (centres unmarked) [pCPA, para-chlorophenylalanine, reference compound], the “Protection against diet-induced obesity (body weight gain, lipogenesis in adipose tissue)” value [1] is listed as “protect against diet-induced obesity in vivo”, the Papp at 4 h, 50 µM (PAMPA-BBB permeability) is listed as 1.85 ×10⁻⁶ cm/s and the inhibition at 1 µM (TPH1) is listed as under 5%. For the same compound, the inhibition at 100 µM (TPH1; 100 µM compound) was 25%.
